Experiments:
[1] = test system: Cat flea Ctenocephalides felis; experiment: Example B1: activity against fleas on dogs in a contaminated environment, oral tablets; format: in vivo
Text: Comparison Between the Activity of Lufenuron Alone and the Combination of Nitenpyran and Lufenuron Against Dog Fleas in a Contaminated Environment Corresponding to Actual Conditions.
In the study, conditions existing in the household were simulated. To this end, 4 isolated and clinically clean rooms were used. They contained a sleeping area laid out with straw and a small run to the outside. The rooms were subjected to natural light conditions. […] Subsequently, each group of dogs underwent different treatment.
Control group 1 was given no active ingredient, but only a placebo and served as the reference group. Group 2 was given lufenuron in a monthly dosage in accordance with the instructions on the packet and once a week was given a placebo. Group 3 was given lufenuron in a monthly dosage in accordance with the instructions on the packet, and once a week was additionally given nitenpyram for a period of 6 weeks. Group 4 was given lufenuron in a monthly dosage in accordance with the instructions on the packet, and twice a week was additionally given nitenpyram for a period of 6 weeks.
In all four groups, the flea population was determined by counting them twice weekly before the first treatment and once weekly during treatment.
The activity of the test substances was determined under simulated household conditions in accordance with the following formula: [formula]

[2] = test system: fleas; conditions: in vitro test, cited from earlier work
[3] = test system: fleas present on the cats; conditions: cited from earlier work

Structure (SMILES) | Activity (% relative to control) ([1]; days 0-28 after first treatment, monthly lufenuron only (Group 2)) [%] | Activity (% relative to control) ([1]; days 29-56, monthly lufenuron only (Group 2)) [%] | Activity (% relative to control) ([1]; days 57-84, monthly lufenuron only (Group 2)) [%] | Activity (% relative to control) ([1]; days 85-112, monthly lufenuron only (Group 2)) [%] | time until activity achieved a satisfactory level for practical usage ([1]; group 2, treated solely with lufenuron) | time within which all the fleas except one died ([1]; after the first administration of nitenpyram) [days] | activity ([2]; after 24 hours) [%] | time to first, substantial activity ([2]; after feeding contaminated blood to fleas) [min] | activity against the fleas present on the cats ([3]; 6 hours after oral administration to cats) [%] | activity against fleas ([3]; cats, oral, on the second day after renewed infestation) [%]
O=C(NC(=O)c1c(F)cccc1F)Nc1cc(Cl)c(OC(F)(F)C(F)C(F)(F)F)cc1Cl (racemic) [lufenuron, (R,S)-1-[2,5-dichloro-4-(1,1,2,2,3,3,3-hexafluoropropoxy)-phenyl]-3-(2,6-difluorobenzoyl)urea] | 25.4 | 78.6 | 72.1 | 94.3 | ca. 84 days |  |  |  |  | 
CCN(Cc1ccc(Cl)nc1)/C(=C/[N+](=O)[O-])NC [nitenpyram, (E)-N-(6-chloro-pyridin-3-ylmethyl)-N-ethyl-N′-methyl-2-nitrovinylidenediamine] |  |  |  |  |  | 16 to 24 | 100 | 30 | 60 | 55

Source: patent US20020058683A1, “Oral combination of lufenuron and nitenpyram against fleas” (priority 1998, published 2002)
